Experimental data from US11384071B2, “Inhibitors of mechanotransduction to treat pain and modulate touch perception” (Max-Delbrück-Centrum für Molekulare Medizin in der …, priority 2016, dated 2022).

What was measured:
[1] = system: mechanically gated currents in mechanoreceptors; experiment: Pillar array analysis of mechanically gated currents in DRG mechanoreceptors; format: cell-based, mouse; conditions: for sensitivity of mechanically gated currents in mechanoreceptors: acutely cultured mouse sensory neurons; for pillar deflections at which mechanically-gated currents are significantly inhibited: mechanoreceptors, FIG. 2e
Description: (§1) HEK-293 cells (passage numbers 4-20) were cultured in DMEM plus 10% fetal calf serum (FCS). Neuro2A (N2A) cells were cultured in DMEM/Opti-MEM media plus 10% FCS.—Sensory DRG neurons were isolated from 4 week old Mus musculus (C57Bl/6). Approximately 20 ganglia were collected from each mouse and individual cells were isolated by treating ganglia with […] collagenase IV for 30 min, followed by 1 ml of 0.05% trypsin, in PBS, for 5-20 min at 37° C. Enzyme-treated ganglia, in DMEM/F-12 media containing 10% Horse Serum (HS), were disrupted by gently passaging through a 20 G needle; cells were then collected by centrifugation (1000 rpm, 3 min), washed and finally re-suspended in DMEM/F-12, 10% HS media (at no point were neurotrophins added to the culture). Sensory neurons were then seeded on EHS-laminin coated substrate and cultured overnight. Experiments involving isolated sensory neurons were conducted within 24-36 hours of isolation of the cells.
(§2) Whole-cell, patch-clamp recordings were conducted as previously described 5-7, using patch pipettes with a tip resistance of 3-6 MΩ, filled with a solution of: 110 mM KCl, 10 mM NaCl, 1 mM MgCl2, 1 mM EGTA and 10 mM HEPES, adjusted to pH 7.3 with KOH. (For experiments on DRG neurons 10 mM QX-314 was added to the pipette to block voltage-gated sodium channels 8 Extracellular solutions contained 140 mM NaCl, 4 mM KCl, 2 mM CaCl2, 1 mM MgCl2, 4 mM glucose, 10 mM HEPES, adjusted to pH 7.4 with NaOH. A Zeiss 200 inverted microscope and an EPC-10 amplifier in combination with Patchmaster software was used, data was analyzed using Fitmaster software (HEKA Electronik GmbH, Germany). Pipette and membrane capacitance were compensated using the auto function of Patchmaster, series resistance was compensated by at least 60% to minimize voltage errors. Mechanical stimuli were applied using a polished glass probe driven by the MM3A micromanipulator (Kleindiek Nanotechnik, Germany). […]
(§3) Briefly, elastomeric pillar arrays of defined dimensions were cast in PDMS with an elasticity of 2 MPa. Cells cultured on these arrays were monitored using whole-cell patch-clamp whilst a glass probe was used to apply repeated deflections (of differing magnitudes) to an individual pilus directly beneath the cell. Images were obtained of the pilus before and after deflection and images were analyzed off-line to determine the exact deflection for each data point. […] Images were analyzed off-line using Igor software (WaveMetrics, USA). […] A power analysis was used to determine that moderate to strong effects between samples could be detected with a sample size >4. […] For quantitative analysis of mechanosensitivity we measured responses in the most sensitive sub-population of mechanoreceptors, previously defined as Typell mechanoreceptors (Poole et al., 2014).

[2] = system: mechanically gated currents in nociceptors; experiment: Pillar array analysis of mechanically gated currents in DRG nociceptors; format: cell-based, mouse; conditions: for amplitude of mechanically gated currents in nociceptors: stimulus magnitudes between 100 and 500 nm
Description: as §1, §2, §3

[3] = molecular target: T1, STOML3 (Mus musculus, UniProt Q6PE84); experiment: BiFC assay of STOML3 self-association in HEK-293 cells; format: cell-based; conditions: for STOML3 self-association based on the slope of YFP signal development: primary screen of about 35000 small molecules, each at 10 M (so in the source)
T1 construct: expressed in transfected cells; host or cells: HEK-293
T1 sequence (Q6PE84 1-287): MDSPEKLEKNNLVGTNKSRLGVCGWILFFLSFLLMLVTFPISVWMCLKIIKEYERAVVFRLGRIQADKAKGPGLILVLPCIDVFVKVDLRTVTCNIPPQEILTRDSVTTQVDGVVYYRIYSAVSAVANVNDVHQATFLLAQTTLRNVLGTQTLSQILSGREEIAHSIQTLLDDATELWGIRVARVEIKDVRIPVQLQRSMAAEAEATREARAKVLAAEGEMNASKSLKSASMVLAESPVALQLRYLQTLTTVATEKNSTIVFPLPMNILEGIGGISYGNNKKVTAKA
Description: HEK-293 cells were cultured in T-150 flasks to approximately 70% confluence; cells were co-transfected with plasmids encoding STOML3-VC and STOML3-VN using Fugene-HD, as per manufacturer's instructions. The transfection reaction was allowed to proceed for 8 h before cells were recovered from the dishes, resuspended in DMEM media containing 25 mM HEPES and lacking phenol red. Cells were plated in PLL-coated 384 well plates using an automated dispenser (EL406 Microplate Washer Dispenser). Plates already contained compound from the ChemBioNet compound library1. The final assay volume was 40 μl cells with 10 μM of compound. […] Development of the YFP fluorescence signal was monitored overnight (15 h), with readings taken every 3 h (ex: 515±8 nm, em: 535±8 nm). In between readings cells were maintained at 37° C., 5% CO2, and 95% humidity. The overnight monitoring of signal development was performed on a Freedom Evo workstation equipped with a robotic arm for plate transport and a Safirell plate reader for fluorescence measurement (Tecan Group Ltd, Männedorf, Switzerland), and an integrated STX44-ICSA automated plate incubator (Liconic AG, Mauren, Liechtenstein) for plate storage in between measurements. Experiments were repeated with 20 plates each day until the entire compound library had been screened and data was normalized to in-plate controls.
Compounds of interest were selected from the slope of YFP-signal vs time. Each well was compared to the average slope of in-plate positive controls (normalized percent activity), and compared to the mean and standard deviation of all samples on a plate (without the controls), giving a Z score as a measure of statistical significance. Initially, compounds were re-screened in triplicate to confirm whether or not the noted differences were repeatable; compounds with confirmed activity were selected for further analysis.
In mammals STOML3 belongs to a family of five structurally conserved membrane proteins, including stomatin, STOML1, STOML2, and podocin^10,12-16, all of which self-associate via their stomatin-domain (FIG. 8a)^10. Self-association of stomatin-domain proteins can be monitored in HEK293 cells using Bimolecular Fluorescence Complementation (BiFC) whereby N- and C-terminal halves of the YFP molecule are tagged to the prey and bait protein STOML3^2,17 (FIG. 1a). Irreversible association of the YFP fragments produces fluorescence that increases linearly over time (FIG. 1b).

With `CCOC(=O)c1c(-c2ccccc2)oc2ccc(Oc3c([N+](=O)[O-])ncn3C)cc12` [OB-1, Ethyl 5-((1-methyl-4-nitro-1H-imidazol-5-yl)oxy)-2-phenylbenzofuran-3-carboxylate] the “sensitivity of mechanically gated currents in mechanoreceptors” value [1] was “substantially reduced”, the “pillar deflections at which mechanically-gated currents are significantly inhibited” value [1] was “up to 250 nm” and the “amplitude of mechanically gated currents in nociceptors” value [2] was “significant reduction”. For the same compound, the “normalized slope of BiFC signal development” value ([3]; 2 μm and 20 μm, wild type STOML3 as bait and prey) was “significantly reduced”, the BiFC signal ([3]; lower OB-1 concentration, 2 M (so in the source)) was “inhibited” and the “STOML3 self-association based on the slope of YFP signal development” value [3] was “most effective inhibitory compounds”.
`Cc1ccnc(NC(=O)CSc2nnc3c4ccccc4n(Cc4ccccc4)c3n2)c1` [OB-2] was tested, and the “sensitivity of mechanically gated currents in mechanoreceptors” value [1] was “substantially reduced”, the “pillar deflections at which mechanically-gated currents are significantly inhibited” value [1] was “less than 50 nm” and the “activation time constant for current activation τ1” value ([2]; nociceptors) was “significantly slowed”. The “latency for mechanically gated currents” value ([2]; nociceptors) was “significantly slowed”, the “amplitude of mechanically gated currents in nociceptors” value [2] was “significant reduction” and the “STOML3 self-association based on the slope of YFP signal development” value [3] was “most effective inhibitory compounds”.
